Assay results published in ChEMBL document CHEMBL1201862, “PubChem BioAssay data set” (2004).
Calls of active or inactive are those of the source.

Key:
[1] = target: T1, Endoribonuclease toxin MazF (Escherichia coli K-12, UniProt P0AE70); test: MazF toxin RNase activators, dose response, biochemical, fluorescence, single-stranded RNA substrate, uHTS hits (AID 588481); type: functional
[2] = target: T1, Endoribonuclease toxin MazF; test: fluorescent RNA oligo signal without MazF, dose response, counter-screen for MazEF activator project, biochemical, fluorescence, single-stranded RNase substrate (AID 588502); type: functional
[3] = target: T2, C-C chemokine receptor type 6 (Homo sapiens, UniProt P51684); test: CCR6 receptor antagonists, dose response, cell-based, luminescent beta-arrestin readout (AID 504728); type: functional
T2 sequence (P51684 whole entry): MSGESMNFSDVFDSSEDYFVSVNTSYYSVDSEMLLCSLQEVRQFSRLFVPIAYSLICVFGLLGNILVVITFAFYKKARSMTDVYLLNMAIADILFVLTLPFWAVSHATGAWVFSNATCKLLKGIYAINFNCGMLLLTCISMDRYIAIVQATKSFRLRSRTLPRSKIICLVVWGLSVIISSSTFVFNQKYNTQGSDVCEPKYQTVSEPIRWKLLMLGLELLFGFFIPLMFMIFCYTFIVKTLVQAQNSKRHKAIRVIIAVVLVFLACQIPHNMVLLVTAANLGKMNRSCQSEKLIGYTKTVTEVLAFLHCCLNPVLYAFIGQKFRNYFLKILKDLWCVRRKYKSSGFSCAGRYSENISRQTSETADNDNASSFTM

[4] = target: Beta-galactosidase (Escherichia coli, UniProt Q8VNN2); test: beta-galactosidase enzyme inhibitors and activators, dose response, artefact control for CCR6 antagonist project, biochemical, E. coli enzyme, set 3 (AID 504712); type: functional
[5] = target: T3, Heat shock factor protein 1 (Mus musculus, UniProt P38532); test: HSF1 potentiators in luciferase reporter cells, confirmation, cell-based, NIH3T3, luminescence, dose retest (AID 435004); type: functional;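 note: stress induced by proteasome inhibitor MG132 added 30 min after compound; luciferase reporter driven by HSF1 response element in NIH3T3 cells; actives raise luminescence as potentiators of the MG132 stress response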
T3 sequence (P38532 whole entry): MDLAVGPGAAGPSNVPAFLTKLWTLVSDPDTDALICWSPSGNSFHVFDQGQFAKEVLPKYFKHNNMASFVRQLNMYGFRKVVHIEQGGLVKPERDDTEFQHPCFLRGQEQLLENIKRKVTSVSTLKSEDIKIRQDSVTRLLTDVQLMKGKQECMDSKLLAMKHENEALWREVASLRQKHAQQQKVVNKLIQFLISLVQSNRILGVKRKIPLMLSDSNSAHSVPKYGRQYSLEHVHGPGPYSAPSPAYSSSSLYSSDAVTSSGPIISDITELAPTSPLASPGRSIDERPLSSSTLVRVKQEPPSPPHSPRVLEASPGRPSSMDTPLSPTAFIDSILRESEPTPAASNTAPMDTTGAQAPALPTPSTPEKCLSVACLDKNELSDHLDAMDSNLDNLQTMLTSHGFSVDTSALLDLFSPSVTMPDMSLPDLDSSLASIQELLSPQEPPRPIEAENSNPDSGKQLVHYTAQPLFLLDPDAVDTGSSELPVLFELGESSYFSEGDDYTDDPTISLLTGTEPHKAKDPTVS

[6] = target: Apelin receptor (Homo sapiens, UniProt P35414); test: APJ beta-arrestin recruitment antagonism, SAR follow-up, selectivity assay for CCR6 antagonist project, cell-based, luminescent, enzyme-fragment complementation (AID 588359); type: functional
[7] = target: C-X-C chemokine receptor type 5 (Homo sapiens, UniProt P32302); test: CXCR5 receptor antagonists, SAR follow-up, selectivity assay for CCR6 antagonist project, cell-based, beta-arrestin, luminescence, CHO-K1 PathHunter (AID 540340); type: functional
[8] = target: T2, C-C chemokine receptor type 6; test: CCR6 receptor antagonists, SAR follow-up, cell-based, luminescent beta-arrestin readout (AID 540334); type: functional
[9] = target: Glycogen synthase kinase-3 alpha (Homo sapiens, UniProt P49840); test: Inhibition of Human GSK-3 alpha Activity Measured in Biochemical System Using Microfluidics - 2063-06_Inhibitor_Dose_DryPowder_Activity. [Related pubchem assays (depositor defined):AID2709]
[10] = target: Glycogen synthase kinase-3 beta (Homo sapiens, UniProt P49841); test: Inhibition of Human GSK-3 beta Activity Measured in Biochemical System Using Microfluidics - 2063-05_Inhibitor_Dose_DryPowder_Activity. [Related pubchem assays (depositor defined):AID2709]
[11] = NIH-3T3 fibroblast cytotoxicity, dose response, cytotoxicity control, cell-based, fluorescence, Alamar Blue, secondary assay (AID 2327); type: functional;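 note: NIH-3T3 mouse fibroblasts cultured with fluconazole at 8 µg/mL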
[12] = target: T4, Luciferin 4-monooxygenase (Photinus pyralis, UniProt P08659); test: Counter Screen for Luciferase-based Assay Positives. [Related pubchem assays: 620, 618, 411 ]
[13] = inhibitors of SNCA 5'UTR-driven reporter translation, confirmation, H4 neuroglioma cells, luminescence (AID 1988); type: functional, cell-based
[14] = C. albicans growth with fluconazole, confirmation, fluorescence, retest (AID 2467); type: functional, cell-based
[15] = system: HT-1080; test: cytotoxicity in HT1080 fibrosarcoma cells, cell-based, fluorescence readout (AID 620); type: functional; details: Homo sapiens
[16] = THP-1 cell cytotoxicity, dose response, cytotoxicity control for non-replicating M. tuberculosis project (AID 489025); type: functional
[17] = HepG2 cell cytotoxicity, dose response, cytotoxicity control for non-replicating M. tuberculosis project (AID 489018); type: functional; details: Mycobacterium tuberculosis
[18] = Vero E6 cell cytotoxicity, dose response, cytotoxicity control for non-replicating M. tuberculosis project, secondary assay (AID 492998); type: functional, VeroE6; details: Vero C1008
[19] = cells; type: functional
[20] = target: Dual specificity protein kinase CLK1 (Homo sapiens, UniProt P49759); test: CLK1 kinase inhibitors, off-target check, dose response, selectivity assay for Dyrk1A inhibitor project, biochemical, cherry-picked samples (AID 588811)
[21] = target: Dual specificity tyrosine-phosphorylation-regulated kinase 1A (Rattus norvegicus, UniProt Q63470); type: biochemical, Homo sapiens
[22] = target: T5, Oxysterols receptor LXR-beta (Homo sapiens, UniProt P55055); type: functional, cell-based;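 note: Cell-based luminescence dose-response assay of agonist activity at LXR, run as a confirmatory counterscreen to a daf-12 agonist screen; HEK293 cells with Gal4-LXR fusion and GAL4-driven luciferase reporter; agonist potency from rising luciferase signal of a Gal4-LXR reporter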
T5 sequence (P55055 whole entry): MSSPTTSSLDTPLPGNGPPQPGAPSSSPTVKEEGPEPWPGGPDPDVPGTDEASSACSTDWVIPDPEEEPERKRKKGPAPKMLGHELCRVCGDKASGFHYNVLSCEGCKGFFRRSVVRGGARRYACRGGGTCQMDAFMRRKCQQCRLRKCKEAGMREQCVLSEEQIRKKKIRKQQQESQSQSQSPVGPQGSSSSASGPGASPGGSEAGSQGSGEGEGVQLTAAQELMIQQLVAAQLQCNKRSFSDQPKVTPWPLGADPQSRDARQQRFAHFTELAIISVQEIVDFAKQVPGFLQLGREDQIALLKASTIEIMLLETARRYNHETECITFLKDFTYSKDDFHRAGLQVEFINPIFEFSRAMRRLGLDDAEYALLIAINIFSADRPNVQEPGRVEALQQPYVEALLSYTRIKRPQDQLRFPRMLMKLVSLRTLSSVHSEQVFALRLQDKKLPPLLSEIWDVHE

[23] = cells
[24] = target: T6, Streptokinase A (Streptococcus pyogenes serotype M1, UniProt P10520); test: S. pyogenes streptokinase expression inhibitors, potency, dose response, plasminogen activation absorbance, OD405 (AID 1914); type: functional, Streptococcus pyogenes M1 GAS;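 note: secreted streptokinase activity via plasminogen activation per viability signal from cell pellet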
T6 sequence (P10520 whole entry): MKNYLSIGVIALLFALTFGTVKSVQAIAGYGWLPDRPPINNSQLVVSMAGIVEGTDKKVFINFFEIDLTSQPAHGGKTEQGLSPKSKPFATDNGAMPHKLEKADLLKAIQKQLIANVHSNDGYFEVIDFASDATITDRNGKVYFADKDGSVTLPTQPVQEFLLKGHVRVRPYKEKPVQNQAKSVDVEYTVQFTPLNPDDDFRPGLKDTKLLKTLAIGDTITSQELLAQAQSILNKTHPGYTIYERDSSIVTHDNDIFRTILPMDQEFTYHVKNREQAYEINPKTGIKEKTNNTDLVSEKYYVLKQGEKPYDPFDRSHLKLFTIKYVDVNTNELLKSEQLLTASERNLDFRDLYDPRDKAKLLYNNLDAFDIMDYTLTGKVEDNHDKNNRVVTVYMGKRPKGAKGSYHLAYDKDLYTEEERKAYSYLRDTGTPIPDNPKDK

[25] = target: T4, Luciferin 4-monooxygenase; test: firefly luciferase enzyme inhibitors, dose response, biochemical, luminescence (AID 1891)
[26] = Luminescence Cell-Based Dose Confirmation HTS to Identify Inhibitors of Platelet Dense Granule Release. [Related pubchem assays: 1663 (Primary HTS), 1678 (Summary of Project)]; type: functional
[27] = system: Streptococcus; test: Group A Streptococcus viability loss, dose response, counter-screen for streptokinase expression inhibitor project, luminescence, BacTiterGlo (AID 1915); type: functional, organism-based;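 note: potency for reduction of bacterial viability or growth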
[28] = target: Heat shock protein HSP 90-alpha (Homo sapiens, UniProt P07900); type: functional, organism-based
[29] = target: HSP90 (Plasmodium falciparum 3D7, UniProt Q8IL32); type: functional, organism-based
[30] = inhibitors of cytokine-induced nitrite release, dose response, cell-based, Griess absorbance, INS-1E, dry powder, set 3 (AID 488870); type: functional; details: Rattus norvegicus
[31] = system: INS1; test: inhibitors of cytokine-induced nitrite release, dose response, cell-based, Griess absorbance, INS-1E, dry powder, set 2 (AID 488868); type: functional; details: Rattus norvegicus
[32] = target: T7, E3 ubiquitin-protein ligase XIAP (Homo sapiens, UniProt P98170); test: Counter Screen using XIAP-Bir3 for Chemical Antagonists of Bir1/2 domains of IAP-family anti-apoptotic proteins. [Related pubchem assays (depositor defined):AID1018, AID1449, AID1514, AID1638, AID1749, AID1750, AID488957, AID488963]
[33] = target: T7, E3 ubiquitin-protein ligase XIAP; test: XIAP antagonists, biochemical, IAP family, fluorescence polarization (AID 1018); type: functional
[34] = target: Troponin, cardiac muscle (Homo sapiens, UniProt P19429+P45379+P63316); test: Fluorescence-based biochemical high throughput dose response assay for activators of the calcium sensitivity of cardiac Regulated Thin Filaments (RTF). [Related pubchem assays (depositor defined):AID493008, AID493018, AID504382, AID504383]; type: protein-complex assay
[35] = system: CHO; test: cytotoxicity in TLR9-MyD88 CHO cells, dose response, cytotoxicity control for TLR9-MyD88 binding inhibitor project, cell-based, luminescence (AID 588339); type: functional, hamster; details: Cricetulus griseus;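 note: CHO cells stably coexpressing TLR9 and MyD88 fusions from primary screen; compound exposure lasted 48 hours before viability readout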

T7 sequence (P98170 whole entry): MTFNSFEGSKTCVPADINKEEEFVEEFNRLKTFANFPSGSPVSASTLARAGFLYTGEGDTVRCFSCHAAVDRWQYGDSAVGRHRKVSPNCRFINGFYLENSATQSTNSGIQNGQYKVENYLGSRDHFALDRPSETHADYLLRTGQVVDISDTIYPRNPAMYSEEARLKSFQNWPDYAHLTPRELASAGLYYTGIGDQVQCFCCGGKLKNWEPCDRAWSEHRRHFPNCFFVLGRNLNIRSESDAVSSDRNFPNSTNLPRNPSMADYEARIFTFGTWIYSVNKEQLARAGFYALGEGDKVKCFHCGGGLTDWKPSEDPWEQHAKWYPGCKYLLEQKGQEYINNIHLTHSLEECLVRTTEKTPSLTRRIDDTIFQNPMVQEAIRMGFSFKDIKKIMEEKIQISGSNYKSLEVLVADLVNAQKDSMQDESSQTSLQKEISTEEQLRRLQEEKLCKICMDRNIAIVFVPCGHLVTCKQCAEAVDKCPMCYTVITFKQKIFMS
T1 sequence (P0AE70 whole entry): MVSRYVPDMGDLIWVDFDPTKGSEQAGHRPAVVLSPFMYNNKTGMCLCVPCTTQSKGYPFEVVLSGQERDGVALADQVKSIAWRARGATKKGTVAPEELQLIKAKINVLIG
T4 sequence (P08659 whole entry): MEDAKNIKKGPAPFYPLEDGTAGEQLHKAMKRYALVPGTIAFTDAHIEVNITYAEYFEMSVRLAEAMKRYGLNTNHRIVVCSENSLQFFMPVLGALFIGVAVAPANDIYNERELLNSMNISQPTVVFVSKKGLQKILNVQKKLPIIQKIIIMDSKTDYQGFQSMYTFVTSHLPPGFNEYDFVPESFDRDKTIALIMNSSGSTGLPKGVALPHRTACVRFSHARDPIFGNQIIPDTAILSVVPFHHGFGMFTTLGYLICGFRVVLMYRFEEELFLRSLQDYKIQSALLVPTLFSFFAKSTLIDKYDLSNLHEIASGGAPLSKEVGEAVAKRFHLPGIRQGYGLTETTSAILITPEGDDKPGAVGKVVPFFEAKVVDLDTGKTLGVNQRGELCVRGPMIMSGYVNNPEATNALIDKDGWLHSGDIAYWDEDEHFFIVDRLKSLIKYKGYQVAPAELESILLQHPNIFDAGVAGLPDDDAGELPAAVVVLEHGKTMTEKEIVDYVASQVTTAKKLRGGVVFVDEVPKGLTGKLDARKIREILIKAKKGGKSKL
Glycogen synthase kinase-3 beta, sequence (P49841 whole entry): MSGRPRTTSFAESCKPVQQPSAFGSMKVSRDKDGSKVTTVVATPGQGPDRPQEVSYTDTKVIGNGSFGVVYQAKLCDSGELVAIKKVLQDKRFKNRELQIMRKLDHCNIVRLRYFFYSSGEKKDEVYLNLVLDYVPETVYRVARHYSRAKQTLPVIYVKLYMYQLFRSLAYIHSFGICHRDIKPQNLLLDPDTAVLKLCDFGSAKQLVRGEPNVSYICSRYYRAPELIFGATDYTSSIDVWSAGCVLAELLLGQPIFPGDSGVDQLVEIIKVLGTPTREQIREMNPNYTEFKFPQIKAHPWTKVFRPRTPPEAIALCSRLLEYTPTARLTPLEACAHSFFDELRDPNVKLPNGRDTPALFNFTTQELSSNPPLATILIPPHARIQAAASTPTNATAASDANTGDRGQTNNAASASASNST
Beta-galactosidase, sequence (Q8VNN2 whole entry): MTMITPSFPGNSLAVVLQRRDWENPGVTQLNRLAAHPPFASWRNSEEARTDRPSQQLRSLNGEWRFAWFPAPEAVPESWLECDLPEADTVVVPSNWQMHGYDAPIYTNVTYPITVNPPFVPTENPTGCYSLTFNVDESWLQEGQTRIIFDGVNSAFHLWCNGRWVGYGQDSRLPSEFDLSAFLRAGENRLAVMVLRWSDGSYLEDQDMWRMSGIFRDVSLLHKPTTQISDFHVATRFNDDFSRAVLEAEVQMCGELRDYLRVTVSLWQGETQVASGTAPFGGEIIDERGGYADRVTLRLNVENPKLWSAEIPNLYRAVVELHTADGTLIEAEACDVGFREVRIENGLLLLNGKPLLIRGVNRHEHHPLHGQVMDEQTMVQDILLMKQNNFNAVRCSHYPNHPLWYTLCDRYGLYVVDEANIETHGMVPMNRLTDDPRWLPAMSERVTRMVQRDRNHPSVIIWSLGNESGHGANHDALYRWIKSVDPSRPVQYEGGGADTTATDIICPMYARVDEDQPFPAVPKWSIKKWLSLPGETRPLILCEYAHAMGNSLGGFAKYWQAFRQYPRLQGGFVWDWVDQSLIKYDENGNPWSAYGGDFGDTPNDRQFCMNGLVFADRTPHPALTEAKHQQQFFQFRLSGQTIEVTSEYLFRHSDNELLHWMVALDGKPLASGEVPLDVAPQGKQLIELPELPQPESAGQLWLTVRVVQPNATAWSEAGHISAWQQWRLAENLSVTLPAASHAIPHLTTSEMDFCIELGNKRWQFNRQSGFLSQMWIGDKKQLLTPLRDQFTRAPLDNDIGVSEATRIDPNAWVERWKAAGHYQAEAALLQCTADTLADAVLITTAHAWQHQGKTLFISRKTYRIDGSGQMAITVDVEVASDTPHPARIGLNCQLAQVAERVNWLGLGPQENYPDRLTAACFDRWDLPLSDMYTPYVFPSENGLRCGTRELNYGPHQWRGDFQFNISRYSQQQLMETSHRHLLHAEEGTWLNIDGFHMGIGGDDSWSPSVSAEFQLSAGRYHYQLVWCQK
C-X-C chemokine receptor type 5, sequence (P32302 whole entry): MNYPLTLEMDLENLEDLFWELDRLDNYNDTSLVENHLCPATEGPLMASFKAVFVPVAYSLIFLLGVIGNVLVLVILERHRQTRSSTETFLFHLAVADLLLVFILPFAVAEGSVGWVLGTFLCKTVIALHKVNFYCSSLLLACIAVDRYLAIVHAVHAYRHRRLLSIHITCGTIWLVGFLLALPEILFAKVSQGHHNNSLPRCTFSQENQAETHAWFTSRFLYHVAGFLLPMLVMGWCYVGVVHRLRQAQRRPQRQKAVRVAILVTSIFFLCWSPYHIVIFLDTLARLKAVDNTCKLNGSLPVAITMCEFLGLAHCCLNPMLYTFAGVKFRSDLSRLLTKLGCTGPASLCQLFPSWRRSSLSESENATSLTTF
HSP90, sequence (Q8IL32 whole entry): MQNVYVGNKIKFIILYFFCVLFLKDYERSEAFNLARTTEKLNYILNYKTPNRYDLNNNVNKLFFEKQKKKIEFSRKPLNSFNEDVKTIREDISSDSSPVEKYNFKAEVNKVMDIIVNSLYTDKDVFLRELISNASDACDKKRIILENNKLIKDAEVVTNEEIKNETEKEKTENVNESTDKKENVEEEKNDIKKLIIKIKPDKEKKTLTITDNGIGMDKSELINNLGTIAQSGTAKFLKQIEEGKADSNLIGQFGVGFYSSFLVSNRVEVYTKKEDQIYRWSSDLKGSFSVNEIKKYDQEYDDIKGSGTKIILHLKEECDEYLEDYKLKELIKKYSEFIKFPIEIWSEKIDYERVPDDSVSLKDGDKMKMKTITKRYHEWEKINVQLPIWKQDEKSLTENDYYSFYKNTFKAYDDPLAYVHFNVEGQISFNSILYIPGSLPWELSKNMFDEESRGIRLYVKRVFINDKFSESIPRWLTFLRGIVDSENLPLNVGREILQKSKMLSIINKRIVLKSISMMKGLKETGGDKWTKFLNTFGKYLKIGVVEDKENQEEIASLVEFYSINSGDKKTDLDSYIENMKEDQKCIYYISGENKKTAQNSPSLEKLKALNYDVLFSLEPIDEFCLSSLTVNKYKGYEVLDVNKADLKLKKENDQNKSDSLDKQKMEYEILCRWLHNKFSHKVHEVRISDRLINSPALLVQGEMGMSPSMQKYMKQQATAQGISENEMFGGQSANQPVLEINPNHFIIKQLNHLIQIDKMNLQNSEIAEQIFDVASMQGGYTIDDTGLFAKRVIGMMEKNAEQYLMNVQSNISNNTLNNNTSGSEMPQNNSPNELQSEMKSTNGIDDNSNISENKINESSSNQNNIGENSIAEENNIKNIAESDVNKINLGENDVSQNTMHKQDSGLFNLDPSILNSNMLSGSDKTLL
Apelin receptor, sequence (P35414 whole entry, the tested form may be a part): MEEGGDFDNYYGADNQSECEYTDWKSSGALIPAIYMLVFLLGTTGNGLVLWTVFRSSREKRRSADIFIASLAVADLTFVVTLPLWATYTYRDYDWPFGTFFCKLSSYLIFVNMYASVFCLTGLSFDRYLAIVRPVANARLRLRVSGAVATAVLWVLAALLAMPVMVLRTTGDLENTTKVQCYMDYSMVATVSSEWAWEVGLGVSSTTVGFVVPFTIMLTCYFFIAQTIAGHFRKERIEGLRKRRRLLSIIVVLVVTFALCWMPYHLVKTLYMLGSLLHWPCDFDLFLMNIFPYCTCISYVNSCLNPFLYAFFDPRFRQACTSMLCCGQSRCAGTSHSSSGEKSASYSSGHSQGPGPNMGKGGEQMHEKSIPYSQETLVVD
Dual specificity protein kinase CLK1, sequence (P49759 whole entry): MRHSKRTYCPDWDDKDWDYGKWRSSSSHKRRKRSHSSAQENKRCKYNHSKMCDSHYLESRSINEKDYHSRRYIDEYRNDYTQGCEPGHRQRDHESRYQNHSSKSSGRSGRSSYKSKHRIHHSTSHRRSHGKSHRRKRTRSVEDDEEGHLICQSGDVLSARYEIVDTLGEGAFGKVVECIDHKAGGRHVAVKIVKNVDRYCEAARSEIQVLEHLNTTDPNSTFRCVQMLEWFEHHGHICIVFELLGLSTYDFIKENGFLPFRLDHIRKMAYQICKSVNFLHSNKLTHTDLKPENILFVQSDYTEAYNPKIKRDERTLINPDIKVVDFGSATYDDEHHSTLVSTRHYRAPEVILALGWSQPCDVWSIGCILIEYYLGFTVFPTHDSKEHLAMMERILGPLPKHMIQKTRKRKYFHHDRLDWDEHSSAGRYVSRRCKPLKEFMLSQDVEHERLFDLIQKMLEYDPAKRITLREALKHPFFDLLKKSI

Structure (SMILES): Oc1nc(N/N=C\c2ccc(F)cc2)nc2ccccc12
- EC50 [1]: 7.12 µM (active)
- EC50 [2]: > 99 µM (inactive)

Structure (SMILES): CN1C(=O)C(=C2CC(c3ccc(Cl)cc3)NN2)C(=O)N(C)C1=O (stereo unspecified)
- IC50 [3]: 14.9 µM (active)
- IC50 [4]: > 66.6 µM (inactive)
- EC50 [5]: > 260 µM (inactive)
- IC50 [6]: 7.22 µM (active)
- IC50 [7]: 9.24 µM (inactive)
- IC50 [8]: 5.84 µM (active)

Structure (SMILES): CCCn1nc(NC(=O)c2cccs2)c2cc3cc(OC)ccc3nc21
- AC50 [9]: 9.59 µM (active)
- AC50 [10]: 445 nM (active)

Structure (SMILES): Cc1cc(NCCCn2ccnc2)n2ncc(-c3ccc(Cl)cc3)c2n1
- EC50 [11]: 21.8 µM (inconclusive)
- EC50 [12]: 2.18 µM (active)
- EC50 [13]: 9.97 µM (inconclusive)
- EC50 [14]: 3.66 µM (active)
- EC50 [15]: 35 µM (active)
- CC50 [16]: 22 µM (active)
- CC50 [17]: > 20 µM (active)
- CC50 [18]: 7.48 µM (active)
- IC50 [19]: 11.1 µM (active)
- AC50 [20]: 5.5 µM (active)
- AC50 [21]: 2.85 µM (active)
- EC50 [22]: > 67.6 µM (inactive)
- EC50 [23]: > 67.6 µM (inactive)

Structure (SMILES): COc1ccccc1/N=c1\oc2cc(O)ccc2cc1C(N)=O
- EC50 [24]: > 150 µM (not active)
- EC50 [25]: 1.15 µM (active)
- EC50 [26]: 3.1 µM (active)
- EC50 [27]: 42 µM (active)
- AC50 [28]: 17.3 µM (active)
- AC50 [29]: 27.5 µM (active)
- AC50 [21]: 0.139 µM (active)

Structure (SMILES): C[C@@H]1CN([C@@H](C)CO)C(=O)c2cccc(NC(=O)Nc3cccc4ccccc34)c2O[C@H]1CN(C)S(=O)(=O)c1ccccc1F
- AC50 [30]: 32.7 µM (active)
- AC50 [31]: 48.6 µM (active)

Structure (SMILES): CCC1(C)OC(c2ccccc2)=C/C(=C/C=C2C(=O)NC(=O)NC2=O)O1 (stereo unspecified)
- IC50 [32]: > 100 µM (inactive)
- IC50 [33]: > 100 µM (not active)
- EC50 [34]: 2.38 µM (active)
- IC50 [35]: > 49.7 µM (inactive)
